Experimental data taken from patent US20230085307A1, “PYRIDAZINONE COMPOUND AND HERBICIDE” (NISSAN CHEMICAL CORPORATION, priority 2019, published 2023).

Columns and labels:
Chinese sprangletop = assay: Test Example 3: herbicidal effect by foliage application, Wagner pot (Table 18, symbol D); format: in vivo, chinese sprangletop (Leptochloa chinensis); conditions: 320 g/ha
Outline: (§1)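 Plants were sown in alluvial soil held under 0.1–0.5 cm standing water and grown 14 days in a greenhouse at 25–30 °C. An emulsifiable formulation, water-diluted to the set dose, was then sprayed onto the foliage, and effects were scored three weeks later using previously defined criteria.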

late watergrass = assay: Test Example 1: herbicidal activity, application before weed generation under submerged conditions (Table 16, symbol A); format: in vivo, late watergrass (Echinochloa oryzicola); conditions: 320 g/ha applied herbicide
Outline: (§2)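 Emulsion formulation, water-diluted to set dose, was put onto the flooded surface (4 cm depth, alluvial soil) the same day weeds were sown and 2.5-leaf rice transplanted. After 3 weeks at 25-30 °C under glass, each species was rated 0 (≤5% kill) to 5 (≥90% kill).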

false cleavers [1] = assay: Test Example 5: herbicidal effect by foliage application, plastic box (Table 20, symbol Q); format: in vivo, false cleavers (Galium spurium); conditions: foliage application, 320 g/ha, three weeks after application
Outline: (§3)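 Plants sown in sterilized diluvial soil and grown 14 days in a greenhouse at 25° C to 30° C, then sprayed on the foliage with the compound's emulsion diluted in water to a predetermined herbicide amount. Injury to weeds and crops scored three weeks after application on a visual rating scale.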

blackgrass [2] = assay: Test Example 4: herbicidal effect by soil treatment (Table 19, symbol J); format: in vivo, blackgrass (Alopecurus myosuroides); conditions: amount of applied herbicide 320 g/ha
Outline: (§4)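 Three weeks of greenhouse growth at 25° C. to 30° C. followed a uniform surface spray of water-diluted emulsion at a predetermined herbicide amount. Seeds had been sown beforehand under about 1.5 cm of sterilized diluvial soil. Grading followed criteria set out in an earlier test.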

Italian ryegrass [3] = assay: Test Example 5: herbicidal effect by foliage application, plastic box (Table 20, symbol K); format: in vivo, Italian ryegrass (Lolium multiflorum); conditions: foliage application, 320 g/ha, three weeks after application
Outline: as §3

wild oat [4] = assay: Test Example 5: herbicidal effect by foliage application, plastic box (Table 20, symbol I); format: in vivo, wild oat (Avena fatua); conditions: foliage application, 320 g/ha, three weeks after application
Outline: as §3

wild oat [5] = assay: Test Example 4: herbicidal effect by soil treatment (Table 19, symbol I); format: in vivo, wild oat (Avena fatua); conditions: amount of applied herbicide 320 g/ha
Outline: as §4

lambsquarters [6] = assay: Test Example 5: herbicidal effect by foliage application, plastic box (Table 20, symbol O); format: in vivo, lambsquarters (Chenopodium album); conditions: foliage application, 320 g/ha, three weeks after application
Outline: as §3

chickweed [7] = assay: Test Example 4: herbicidal effect by soil treatment (Table 19, symbol P); format: in vivo, common chickweed (Stellaria media); conditions: amount of applied herbicide 320 g/ha
Outline: as §4

Italian ryegrass [8] = assay: Test Example 4: herbicidal effect by soil treatment (Table 19, symbol K); format: in vivo, Italian ryegrass (Lolium multiflorum); conditions: amount of applied herbicide 320 g/ha
Outline: as §4

barnyard grass [9] = assay: Test Example 4: herbicidal effect by soil treatment (Table 19, symbol H); format: in vivo, barnyard grass (Echinochloa crus-galli); conditions: amount of applied herbicide 320 g/ha
Outline: as §4

velvetleaf [10] = assay: Test Example 4: herbicidal effect by soil treatment (Table 19, symbol M); format: in vivo, velvetleaf (Abutilon theophrasti); conditions: amount of applied herbicide 320 g/ha
Outline: as §4

oval-leafed pondweed = assay: Test Example 1: herbicidal activity, application before weed generation under submerged conditions (Table 16, symbol C); format: in vivo, oval-leafed pondweed (Monochoria vaginalis); conditions: 320 g/ha applied herbicide
Outline: as §2

barnyard grass [11] = assay: Test Example 3: herbicidal effect by foliage application, Wagner pot (Table 18, symbol H); format: in vivo, barnyard grass (Echinochloa crus-galli); conditions: 320 g/ha
Outline: as §1

blackgrass [12] = assay: Test Example 5: herbicidal effect by foliage application, plastic box (Table 20, symbol J); format: in vivo, blackgrass (Alopecurus myosuroides); conditions: foliage application, 320 g/ha, three weeks after application
Outline: as §3

persian speedwell [13] = assay: Test Example 5: herbicidal effect by foliage application, plastic box (Table 20, symbol R); format: in vivo, Persian speedwell (Veronica persica); conditions: foliage application, 320 g/ha, three weeks after application
Outline: as §3

southern crabgrass [14] = assay: Test Example 5: herbicidal effect by foliage application, plastic box (Table 20, symbol F); format: in vivo, southern crabgrass (Digitaria ciliaris); conditions: foliage application, 320 g/ha, three weeks after application
Outline: as §3

lambsquarters [15] = assay: Test Example 4: herbicidal effect by soil treatment (Table 19, symbol O); format: in vivo, lambsquarters (Chenopodium album); conditions: amount of applied herbicide 320 g/ha
Outline: as §4

green foxtail [16] = assay: Test Example 5: herbicidal effect by foliage application, plastic box (Table 20, symbol G); format: in vivo, green foxtail (Setaria viridis); conditions: foliage application, 320 g/ha, three weeks after application
Outline: as §3

persian speedwell [17] = assay: Test Example 4: herbicidal effect by soil treatment (Table 19, symbol R); format: in vivo, Persian speedwell (Veronica persica); conditions: amount of applied herbicide 320 g/ha
Outline: as §4

chickweed [18] = assay: Test Example 5: herbicidal effect by foliage application, plastic box (Table 20, symbol P); format: in vivo, common chickweed (Stellaria media); conditions: foliage application, 320 g/ha, three weeks after application
Outline: as §3

false cleavers [19] = assay: Test Example 4: herbicidal effect by soil treatment (Table 19, symbol Q); format: in vivo, false cleavers (Galium spurium); conditions: amount of applied herbicide 320 g/ha
Outline: as §4

green foxtail [20] = assay: Test Example 4: herbicidal effect by soil treatment (Table 19, symbol G); format: in vivo, green foxtail (Setaria viridis); conditions: amount of applied herbicide 320 g/ha
Outline: as §4

windgrass [21] = assay: Test Example 5: herbicidal effect by foliage application, plastic box (Table 20, symbol L); format: in vivo, windgrass (Apera spica-venti); conditions: foliage application, 320 g/ha, three weeks after application
Outline: as §3

Japanese bulrush = assay: Test Example 1: herbicidal activity, application before weed generation under submerged conditions (Table 16, symbol B); format: in vivo, Japanese bulrush (Schoenoplectus juncoides); conditions: 320 g/ha applied herbicide
Outline: as §2

redroot pigweed [22] = assay: Test Example 5: herbicidal effect by foliage application, plastic box (Table 20, symbol N); format: in vivo, redroot pigweed (Amaranthus retroflexus); conditions: foliage application, 320 g/ha, three weeks after application
Outline: as §3

barnyard grass [23] = assay: Test Example 5: herbicidal effect by foliage application, plastic box (Table 20, symbol H); format: in vivo, barnyard grass (Echinochloa crus-galli); conditions: foliage application, 320 g/ha, three weeks after application
Outline: as §3

southern crabgrass [24] = assay: Test Example 4: herbicidal effect by soil treatment (Table 19, symbol F); format: in vivo, southern crabgrass (Digitaria ciliaris); conditions: amount of applied herbicide 320 g/ha
Outline: as §4

redroot pigweed [25] = assay: Test Example 4: herbicidal effect by soil treatment (Table 19, symbol N); format: in vivo, redroot pigweed (Amaranthus retroflexus); conditions: amount of applied herbicide 320 g/ha
Outline: as §4

rice flat sedge = assay: Test Example 3: herbicidal effect by foliage application, Wagner pot (Table 18, symbol E); format: in vivo, rice flat sedge (Cyperus iria); conditions: 320 g/ha
Outline: as §1

windgrass [26] = assay: Test Example 4: herbicidal effect by soil treatment (Table 19, symbol L); format: in vivo, windgrass (Apera spica-venti); conditions: amount of applied herbicide 320 g/ha
Outline: as §4

velvetleaf [27] = assay: Test Example 5: herbicidal effect by foliage application, plastic box (Table 20, symbol M); format: in vivo, velvetleaf (Abutilon theophrasti); conditions: foliage application, 320 g/ha, three weeks after application
Outline: as §3

| Compound | herbicidal effect on D (Chinese sprangletop), rating 0-5 (Chinese sprangletop) | Herbicidal effect on A: late watergrass (grade 0-5) (late watergrass) | herbicidal effect grade, Q: false cleavers (false cleavers [1]) | herbicidal effect rating, J: blackgrass (blackgrass [2]) | herbicidal effect grade, K: Italian ryegrass (Italian ryegrass [3]) | herbicidal effect grade, I: wild oat (wild oat [4]) | herbicidal effect rating, I: wild oat (wild oat [5]) | herbicidal effect grade, O: lambsquarters (lambsquarters [6]) | herbicidal effect rating, P: chickweed (chickweed [7]) | herbicidal effect rating, K: Italian ryegrass (Italian ryegrass [8]) | herbicidal effect rating, H: barnyard grass (barnyard grass [9]) | herbicidal effect rating, M: velvetleaf (velvetleaf [10]) | Herbicidal effect on C: oval-leafed pondweed (grade 0-5) (oval-leafed pondweed) | herbicidal effect on H (barnyard grass), rating 0-5 (barnyard grass [11]) | herbicidal effect grade, J: blackgrass (blackgrass [12]) | herbicidal effect grade, R: persian speedwell (persian speedwell [13]) | herbicidal effect grade, F: southern crabgrass (southern crabgrass [14]) | herbicidal effect rating, O: lambsquarters (lambsquarters [15]) | herbicidal effect grade, G: green foxtail (green foxtail [16]) | herbicidal effect rating, R: persian speedwell (persian speedwell [17]) | also measured |
| --- | --- | --- | --- | --- | --- | --- | --- | --- | --- | --- | --- | --- | --- | --- | --- | --- | --- | --- | --- | --- | --- |
| CCCC(=O)Oc1c(C)nn(C)c(=O)c1-c1c(-c2ccc(F)cc2OCC)sc2ccccc12 [1-062] | 3 (Herbicidal rate of 40% or more and less than 70%) | 2 (Herbicidal rate of 20% or more and less than 40%) | 5 (Herbicidal rate of 90% or more (almost completely withered)) | 5 (Herbicidal rate of 90% or more (almost completely withered)) | 3 (Herbicidal rate of 40% or more and less than 70%) | 3 (Herbicidal rate of 40% or more and less than 70%) | 1 (Herbicidal rate of 5% or more and less than 20%) | 3 (Herbicidal rate of 40% or more and less than 70%) | 3 (Herbicidal rate of 40% or more and less than 70%) | 4 (Herbicidal rate of 70% or more and less than 90%) | 4 (Herbicidal rate of 70% or more and less than 90%) | 3 (Herbicidal rate of 40% or more and less than 70%) | 0 (Herbicidal rate of 5% or less (almost no effect)) | 5 (Herbicidal rate of 90% or more (almost completely withered)) | 5 (Herbicidal rate of 90% or more (almost completely withered)) | 5 (Herbicidal rate of 90% or more (almost completely withered)) | 5 (Herbicidal rate of 90% or more (almost completely withered)) | 0 (Herbicidal rate of 5% or less (almost no effect)) | 5 (Herbicidal rate of 90% or more (almost completely withered)) | 4 (Herbicidal rate of 70% or more and less than 90%) | herbicidal effect grade, P: chickweed (chickweed [18]): 5 (Herbicidal rate of 90% or more (almost completely withered)); herbicidal effect rating, Q: false cleavers (false cleavers [19]): 5 (Herbicidal rate of 90% or more (almost completely withered)); herbicidal effect rating, G: green foxtail (green foxtail [20]): 4 (Herbicidal rate of 70% or more and less than 90%); herbicidal effect grade, L: windgrass (windgrass [21]): 5 (Herbicidal rate of 90% or more (almost completely withered)); Herbicidal effect on B: Japanese bulrush (grade 0-5) (Japanese bulrush): 2 (Herbicidal rate of 20% or more and less than 40%); herbicidal effect grade, N: redroot pigweed (redroot pigweed [22]): 5 (Herbicidal rate of 90% or more (almost completely withered)); herbicidal effect grade, H: barnyard grass (barnyard grass [23]): 4 (Herbicidal rate of 70% or more and less than 90%); herbicidal effect rating, F: southern crabgrass (southern crabgrass [24]): 5 (Herbicidal rate of 90% or more (almost completely withered)); herbicidal effect rating, N: redroot pigweed (redroot pigweed [25]): 5 (Herbicidal rate of 90% or more (almost completely withered)); herbicidal effect on E (rice flat sedge), rating 0-5 (rice flat sedge): 5 (Herbicidal rate of 90% or more (almost completely withered)); herbicidal effect rating, L: windgrass (windgrass [26]): 3 (Herbicidal rate of 40% or more and less than 70%); herbicidal effect grade, M: velvetleaf (velvetleaf [27]): 5 (Herbicidal rate of 90% or more (almost completely withered)) |
| Cc1ccc(-c2sc3ccccc3c2-c2c(O)c(C)nn(C)c2=O)cc1C [1-065] | 3 (Herbicidal rate of 40% or more and less than 70%) | 3 (Herbicidal rate of 40% or more and less than 70%) | 3 (Herbicidal rate of 40% or more and less than 70%) | 0 (Herbicidal rate of 5% or less (almost no effect)) | 2 (Herbicidal rate of 20% or more and less than 40%) | 0 (Herbicidal rate of 5% or less (almost no effect)) | 0 (Herbicidal rate of 5% or less (almost no effect)) | 3 (Herbicidal rate of 40% or more and less than 70%) | 3 (Herbicidal rate of 40% or more and less than 70%) | 0 (Herbicidal rate of 5% or less (almost no effect)) | 0 (Herbicidal rate of 5% or less (almost no effect)) | 0 (Herbicidal rate of 5% or less (almost no effect)) | 0 (Herbicidal rate of 5% or less (almost no effect)) | 3 (Herbicidal rate of 40% or more and less than 70%) | 0 (Herbicidal rate of 5% or less (almost no effect)) | 5 (Herbicidal rate of 90% or more (almost completely withered)) | 3 (Herbicidal rate of 40% or more and less than 70%) | 0 (Herbicidal rate of 5% or less (almost no effect)) | 3 (Herbicidal rate of 40% or more and less than 70%) | 4 (Herbicidal rate of 70% or more and less than 90%) | herbicidal effect grade, P: chickweed (chickweed [18]): 5 (Herbicidal rate of 90% or more (almost completely withered)); herbicidal effect rating, Q: false cleavers (false cleavers [19]): 0 (Herbicidal rate of 5% or less (almost no effect)); herbicidal effect rating, G: green foxtail (green foxtail [20]): 0 (Herbicidal rate of 5% or less (almost no effect)); herbicidal effect grade, L: windgrass (windgrass [21]): 0 (Herbicidal rate of 5% or less (almost no effect)); Herbicidal effect on B: Japanese bulrush (grade 0-5) (Japanese bulrush): 0 (Herbicidal rate of 5% or less (almost no effect)); herbicidal effect grade, N: redroot pigweed (redroot pigweed [22]): 3 (Herbicidal rate of 40% or more and less than 70%); herbicidal effect grade, H: barnyard grass (barnyard grass [23]): 3 (Herbicidal rate of 40% or more and less than 70%); herbicidal effect rating, F: southern crabgrass (southern crabgrass [24]): 0 (Herbicidal rate of 5% or less (almost no effect)); herbicidal effect rating, N: redroot pigweed (redroot pigweed [25]): 0 (Herbicidal rate of 5% or less (almost no effect)); herbicidal effect on E (rice flat sedge), rating 0-5 (rice flat sedge): 5 (Herbicidal rate of 90% or more (almost completely withered)); herbicidal effect rating, L: windgrass (windgrass [26]): 0 (Herbicidal rate of 5% or less (almost no effect)); herbicidal effect grade, M: velvetleaf (velvetleaf [27]): 5 (Herbicidal rate of 90% or more (almost completely withered)) |
